Assay results from ChEMBL document CHEMBL2440104, “Synthesis and Biological Evaluation of the First Example of NO-Donor Histone Deacetylase Inhibitor” (ACS Med Chem Lett, 2013).
Activity calls are given as the source filed them. The rule behind the calls is not given here.

Legend:
[1] = biological target: T1, Histone deacetylase (Homo sapiens) (UniProt Q13547+O15379+Q9UBN7+Q92769+Q9UQL6+Q8WUI4+Q9BY41+Q96DB2+P56524+Q9UKV0+Q969S8); experiment: Inhibition of HDAC activity in human HaCaT cell lysate at 50 uM after 1 hr by colorimetry; assay type: cell-free
[2] = biological target: T1, Histone deacetylase (Homo sapiens); experiment: Effect on HDAC in human HaCaT cells assessed as downregulation of miR-505# at 10 uM after 1 hr by RT-PCR analysis; assay type: cell-based
[3] = biological target: Histone deacetylase 4 (Homo sapiens) (UniProt P56524); experiment: Induction of HDAC4 nuclear shuttling in human HaCaT cells at 10 uM after 1 hr by immunofluorescence method relative to DMSO-treated control; assay type: cell-based
Chain of Histone deacetylase 4 (Homo sapiens) (P56524 whole entry): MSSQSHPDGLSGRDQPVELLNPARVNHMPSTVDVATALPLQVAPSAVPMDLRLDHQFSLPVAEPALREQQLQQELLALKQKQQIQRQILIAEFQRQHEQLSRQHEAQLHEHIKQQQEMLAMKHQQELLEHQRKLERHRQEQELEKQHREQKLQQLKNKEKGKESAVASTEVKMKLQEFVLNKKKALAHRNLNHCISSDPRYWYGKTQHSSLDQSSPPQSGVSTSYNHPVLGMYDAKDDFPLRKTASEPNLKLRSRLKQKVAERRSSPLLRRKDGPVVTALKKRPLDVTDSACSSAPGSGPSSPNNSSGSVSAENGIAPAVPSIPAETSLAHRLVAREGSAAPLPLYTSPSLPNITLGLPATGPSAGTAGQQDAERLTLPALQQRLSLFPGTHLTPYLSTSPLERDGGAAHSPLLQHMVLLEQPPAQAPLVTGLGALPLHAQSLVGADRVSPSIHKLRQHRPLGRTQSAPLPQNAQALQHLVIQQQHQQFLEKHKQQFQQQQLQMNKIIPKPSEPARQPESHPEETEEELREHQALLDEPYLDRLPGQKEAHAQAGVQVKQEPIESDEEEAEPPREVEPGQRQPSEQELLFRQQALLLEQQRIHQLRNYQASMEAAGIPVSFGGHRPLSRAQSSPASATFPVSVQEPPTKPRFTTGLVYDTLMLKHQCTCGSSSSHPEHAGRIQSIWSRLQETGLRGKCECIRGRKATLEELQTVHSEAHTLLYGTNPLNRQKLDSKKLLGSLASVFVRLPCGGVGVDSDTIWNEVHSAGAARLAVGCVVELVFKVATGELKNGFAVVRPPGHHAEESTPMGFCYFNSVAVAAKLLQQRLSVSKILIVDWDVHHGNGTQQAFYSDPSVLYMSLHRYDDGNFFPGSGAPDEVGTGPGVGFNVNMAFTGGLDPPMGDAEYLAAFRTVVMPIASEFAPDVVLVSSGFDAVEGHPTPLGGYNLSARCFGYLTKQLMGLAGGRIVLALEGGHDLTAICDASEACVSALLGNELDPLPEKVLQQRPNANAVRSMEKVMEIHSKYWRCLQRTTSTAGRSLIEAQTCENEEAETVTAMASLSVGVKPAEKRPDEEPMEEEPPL

[4] = biological target: T1, Histone deacetylase (Homo sapiens); experiment: Effect on HDAC in human HaCaT cells assessed as upregulation of miR-1296 at 10 uM after 1 hr by RT-PCR analysis; assay type: cell-based
[5] = biological target: T1, Histone deacetylase (Homo sapiens); experiment: Effect on HDAC in human HaCaT cells assessed as downregulation of miR-106b# at 10 uM after 1 hr by RT-PCR analysis; assay type: cell-based
HaCaT [6] = experiment: Induction of NO release in human HaCaT cells at 10 uM after 1 to 5 hrs by DAF-2D-based FACS analysis relative to DMSO-treated control; assay type: functional, cell-based
C2C12 [7] = experiment: Increase in mouse C2C12 cell proliferation at 0.1 uM after 72 hrs; assay type: functional, cell-based
[8] = biological target: T1, Histone deacetylase (Homo sapiens); experiment: Effect on HDAC in human HaCaT cells assessed as upregulation of miR-30d# at 10 uM after 1 hr by RT-PCR analysis; assay type: cell-based
[9] = biological target: T1, Histone deacetylase (Homo sapiens); experiment: Effect on HDAC in human HaCaT cells assessed as downregulation of miR-378 at 10 uM after 1 hr by RT-PCR analysis; assay type: cell-based
[10] = biological target: Histone deacetylase 2 (Homo sapiens) (UniProt Q92769); experiment: Induction of HDAC2 cysteine S-nitrosylation in human HaCaT cells at 10 uM after 1 hr by immunoprecipitation method; assay type: cell-based
Chain of Histone deacetylase 2 (Homo sapiens) (Q92769 whole entry): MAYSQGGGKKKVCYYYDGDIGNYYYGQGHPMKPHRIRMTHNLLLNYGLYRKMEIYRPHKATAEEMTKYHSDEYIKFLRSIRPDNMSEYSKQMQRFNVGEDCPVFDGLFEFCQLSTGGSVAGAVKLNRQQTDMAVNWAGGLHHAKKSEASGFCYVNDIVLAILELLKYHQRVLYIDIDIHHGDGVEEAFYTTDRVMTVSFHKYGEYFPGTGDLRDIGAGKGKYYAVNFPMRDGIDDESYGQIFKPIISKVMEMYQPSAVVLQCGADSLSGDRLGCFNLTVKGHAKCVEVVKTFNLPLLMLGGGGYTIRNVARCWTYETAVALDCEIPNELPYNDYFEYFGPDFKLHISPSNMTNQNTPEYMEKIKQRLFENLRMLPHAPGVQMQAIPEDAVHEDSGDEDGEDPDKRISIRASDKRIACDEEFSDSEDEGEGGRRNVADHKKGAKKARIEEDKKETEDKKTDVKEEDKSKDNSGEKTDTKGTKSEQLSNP

HaCaT [11] = experiment: Induction of NO release in human HaCaT cells assessed as Production of [3H]cGMP after 1 hr by liquid scintillation counting; assay type: functional, cell-based
[12] = biological target: T1, Histone deacetylase (Homo sapiens); experiment: Effect on HDAC in human HaCaT cells assessed as downregulation of miR-1254 at 10 uM after 1 hr by RT-PCR analysis; assay type: cell-based
C2C12 [13] = experiment: Modulation of mouse C2C12 cell proliferation at 0.1 uM after 72 hrs; assay type: functional, cell-based
[14] = biological target: Histone deacetylase 2 (Homo sapiens) (UniProt Q92769); experiment: Induction of HDAC2 cysteine S-nitrosylation in human HaCaT cells at 10 uM after 1 hr by immunoprecipitation method in prsence of NO scavenger PTIO; assay type: cell-based
[15] = biological target: T1, Histone deacetylase (Homo sapiens); experiment: Effect on HDAC in human HaCaT cells assessed as downregulation of miR-99b# at 10 uM after 1 hr by RT-PCR analysis; assay type: cell-based
[16] = biological target: T1, Histone deacetylase (Homo sapiens); experiment: Effect on HDAC in human HaCaT cells assessed as upregulation of miR-192# at 10 uM after 1 hr by RT-PCR analysis; assay type: cell-based
[17] = biological target: T1, Histone deacetylase (Homo sapiens); experiment: Effect on HDAC in human HaCaT cells assessed as downregulation of miR-33a# at 10 uM after 1 hr by RT-PCR analysis; assay type: cell-based
[18] = biological target: T1, Histone deacetylase (Homo sapiens); experiment: Effect on HDAC in human HaCaT cells assessed as downregulation of miR-19b-1 at 10 uM after 1 hr by RT-PCR analysis; assay type: cell-based
C2C12 [19] = experiment: Induction of myogenic differentiation in mouse C2C12 cells assessed as MHC-positive fibers at 0.1 uM after 7 days by immunofluorescence microscopy; assay type: functional, cell-based
[20] = biological target: T1, Histone deacetylase (Homo sapiens); experiment: Effect on HDAC in human HaCaT cells assessed as downregulation of miR-200a# at 10 uM after 1 hr by RT-PCR analysis; assay type: cell-based
C2C12 [21] = experiment: Induction of myogenic differentiation in mouse C2C12 cells assessed as increase in number of nuclei per fiber at 0.1 uM after 7 days by immunofluorescence microscopy; assay type: functional, cell-based
[22] = biological target: T1, Histone deacetylase (Homo sapiens); details: HaCaT, at 1 to 50 µM
Description: Inhibition of HDAC activity in human HaCaT cell lysate at 1 to 50 uM after 1 hr by colorimetry

[23] = biological target: T1, Histone deacetylase (Homo sapiens); experiment: Effect on HDAC in human HaCaT cells assessed as upregulation of miR-1305 at 10 uM after 1 hr by RT-PCR analysis; assay type: cell-based
[24] = biological target: T1, Histone deacetylase (Homo sapiens); experiment: Effect on HDAC in human HaCaT cells assessed as downregulation of miR-27a# at 10 uM after 1 hr by RT-PCR analysis; assay type: cell-based
[25] = biological target: T1, Histone deacetylase (Homo sapiens); experiment: Effect on HDAC in human HaCaT cells assessed as upregulation of miR-18a# at 10 uM after 1 hr by RT-PCR analysis; assay type: cell-based
[26] = biological target: T1, Histone deacetylase (Homo sapiens); experiment: Effect on HDAC in human HaCaT cells assessed as upregulation of miR-409-3p at 10 uM after 1 hr by RT-PCR analysis; assay type: cell-based

Q: With `CN(C)Cc1no[n+]([O-])c1C#N` as the compound, how does the inhibition [1] read?
A: Active

Q: What about the Activity [2] of the same compound?
A: Active

Q: What about the Activity [3] of the same compound?
A: Active

Q: And the Activity [4]?
A: Active

Q: And the Activity [5]?
A: Active

Q: And the Activity (HaCaT [6])?
A: Active

Q: And the Activity (C2C12 [7])?
A: Active

Q: What about the Activity [8] of the same compound?
A: Active

Q: And the Activity [9]?
A: Active

Q: Which results are given for `CN(Cc1ccc(COC(=O)NCc2ccc(C(=O)Nc3ccccc3N)cc2)cn1)Cc1no[n+]([O-])c1C#N`?
A: Activity [10]: Active; Activity (HaCaT [11]): Dose-dependent effect; Activity [12]: Active; Activity (C2C12 [13]): Active; Activity [14]: inactive; Activity [3]: Active; Activity [15]: Active; Activity [16]: Active; Activity [17]: Active; Activity [18]: Active; Activity [5]: Active; Activity (HaCaT [6]): Active; Activity (C2C12 [19]): Active; Activity [20]: Active; Activity (C2C12 [21]): Active; inhibition [22]: Active; Activity [23]: Active; Activity [24]: Active; Activity [25]: Active; Activity [26]: Active; Activity [9]: Active

Q: With `Nc1ccccc1NC(=O)c1ccc(CNC(=O)OCc2cccnc2)cc1` as the compound, how does the Activity (C2C12 [13]) read?
A: Active

Q: What about the Activity [3] of the same compound?
A: inactive

Q: What about the Activity (HaCaT [6]) of the same compound?
A: inactive
